# Measurements taken from article PMC7037447, “Syntheses of L-Rhamnose-Linked Amino Glycerolipids and Their Cytotoxic Activities against Human Cancer Cells” (Molecules, 2020).
# Tests used:
# MDA-MB-231 = assay: MTS cell viability assay, 48 h; type: cell-based, human; details: Homo sapiens; MDA-MB-231, 48 h, MTS; concentration decreasing cell viability by 50% relative to untreated control; read-out: CC50
# Experimental: […] […] This compound carries a primary amino group at the sn-3 position of the glycerolipid and L-rhamno sugar at the sn-2 position via an α-rhamnosidic linkage.
# (§1) The cell lines were cultured from frozen stocks originally obtained from ATCC (Manassas, VA, USA). MDA-MB-231, JIMT-1, DU145, MDA-MB-468, Hs578t and MDA-MB-453 were grown in DMEM medium supplemented with 10% FBS. BT-474 cells were grown in DMEM/F12 medium supplemented with 10% FBS. MiaPaCa2 was cultured in DMEM supplemented with 10% FBS and 2.5% horse serum. All the media contained penicillin/streptomycin. U-251 and U-87 in Eagle MEM supplemented by 10% FBS, 1% Non-essential amino acids, 1 mM sodium pyruvate and 2 mM glutamine. BT-549 was cultured in RPMI 1640 medium supplemented with 10% FBS.
# The effects of the GAELs on the viability of the epithelial cancer cell lines were determined as previously described. Briefly, equal numbers of the cells were dispersed into 96-well plates. […] MTS reagent [3-(4,5-dimethylthiazol-2-yl)-5-(3-carboxymethoxyphenyl)-2-(4-sulfophenyl)-2H-tetrazolium, inner salt; Promega, Madison, WI, USA] (20% v/v) was subsequently added and the plates were incubated for 1–4 h in a CO2 incubator followed by measurement of the medium at OD490 with a plate reader (Molecular Devices).
# [1] = tested on: BT549, MDA-MB-453, MDA-MB-468, and Hs578t (triple negative breast cancer lines); assay: MTS cell viability assay, 48 h, triple negative breast cancer lines; type: cell-based, human; details: with the exception of MDA-MB-453
# Experimental: Concentrations of compound 3 between 6–15 µM were sufficient to kill all the triple negative cell lines with the exception of MDA-MB-453 where viability was inhibited by 60% at the highest concentration tested. 30 µM of 3 was required for complete loss of viability of the hormone sensitive breast cancer BT474 cell line.
# as §1
# The effects of the GAELs on the viability of the epithelial cancer cell lines were determined as previously described. Briefly, equal numbers of the cells were dispersed into 96-well plates. After 24 h, the cells were incubated with the compounds (0–30 µM) for 48 h. […] (20% v/v) was subsequently added and the plates were incubated for 1–4 h in a CO2 incubator followed by measurement of the medium at OD490 with a plate reader (Molecular Devices). […]
# DU-145 [2] = details: DU-145, absence or presence of 40 µM QVD, 48 h
# Experimental: (§2) One of the hallmark features of cytotoxic GAELs is their ability to kill cancer cells via an apoptosis-independent mechanism. We evaluated whether the mechanism of action of 3 was similar to other GAELs.
# (§3) Equal numbers of JIMT-1, or DU145 cells were dispersed into 96-well plates, and after 4 h the cells were treated with pan-caspase inhibitor QVD-OPh (40 µM). After 20 h, the cells were incubated with the varying concentration of the compounds ([…]) for 48 h. At the end of the incubation, the MTS assay was used to assess cell viability as described above.
# (§4) DU-145 or JIMT-1 cell lines were treated with increasing concentrations of 3 or Adriamycin in the presence or absence of 40 µM QVD. Four hours after plating, cells were treated with QVD. After 20 h, the cells were incubated with 0–15 µM 3 or 0–4 µM Adriamycin for 48 h. Cell viability relative to vehicle control was measured by MTS assay.
# JIMT-1 [3] = details: JIMT-1, absence or presence of 40 µM QVD, 48 h
# Experimental: as §2, §3, §4
# DU-145 [4] = assay: Cell membrane integrity, ethidium homodimer-1 (EthD-1) staining; type: cell-based; details: DU-145, 10 µM, 4–6 h
# Experimental: (§5) After determining that the mechanism of cell death of compound 3 is independent of caspases-mediated apoptosis, we evaluated if cell death was due to membrane disruption or lysis using the cell impermeant ethidium homodimer-1 (EthD-1) dye that emits red fluorescence upon binding to DNA [13, 14]. DU-145 and JIMT-1 were treated with compound 3 at 10 and 15 µM, respectively. After 4–6 h, the cells were treated with EthD-1 dye and monitored under fluorescence microscopy.
# (§6) Equal numbers of JIMT-1 and DU145 cells were dispersed into 96-well plates. After 24 h the cells were incubated with varying concentration of compounds 3 or 4 (4–6 µM) for 5–6 h. Subsequently, 2 µM of the cell membrane impermeant dye, ethidium homodimer-1 (EthD-1 (Molecular Probes, Eugene, OR, USA) that emits red fluorescence upon binding to DNA was added and the cells analysed by fluorescence microscopy. EthD-1 staining was compared to negative controls with no treatment and positive control treated with 0.01% Triton X-100 for 10 min.
# (§7) Figure 5 Evaluation of effect of compound 3 on cell membrane of DU-145 and JIMT-1 cell lines using cell impermeant ethidium homodimer-1 (EthD-1) dye that emits red fluorescence upon binding to DNA.
# JIMT-1 [5] = assay: as above; type: cell-based; details: JIMT-1, 15 µM, 4–6 h
# Experimental: as §5, §6, §7
compound,measurement,setting,value
"CCCCCCCCCCCCCCCCOCC(CN)OC1OC(C)C(O)C(O)C1O [Compound 3, 3-Amino-1-O-hexadecyloxy-2R-(O–α-L-rhamnopyranosyl)-sn-glycerol]",CC50,MDA-MB-231,4.8 µM
same,Concentrations sufficient to kill all the triple negative cell lines,[1],6 to 15 µM
same,Effect of QVD on cytotoxicity,DU-145 [2],no statistically significant differences
same,Effect of QVD on cytotoxicity,JIMT-1 [3],no statistically significant differences
same,Cell membrane lysis (EthD-1 staining),DU-145 [4],no significant cell membrane lysis
same,Cell membrane lysis (EthD-1 staining),JIMT-1 [5],no significant cell membrane lysis
